Assay results reported in publication PMC11111408, “Concurrent inhibition of oncogenic and wild-type RAS-GTP for cancer therapy” (Nature, 2024).
Like-named read-outs stand apart in the source and are kept apart here.

Test system: panel of 183 cancer cell lines
Experiment: Cell panel of 183 cancer cell lines, viability (CTG) at Crown Bioscience
Format: cell-based
Details: Homo sapiens
Description: The panel consisted of cell lines with any substitution at position 12 of KRAS, NRAS or HRAS (KRAS(G12X), NRAS(G12X), HRAS(G12X)); substitutions in KRAS, NRAS or HRAS at any position other than 12, 13 and 61 (KRAS(other/VUS), NRAS(other/VUS), HRAS(other/VUS)); other oncogenic mutations in the RAS pathway (ABL1, ALK, ARAF, BRAF, CBL, EGFR, ERBB2, ERBB3, ERBB4, ERRFI1, FGFR1, FGFR2, FGFR3, FGFR4, FLT3, HRAS, IGF1R, JAK2, KIT, MAP2K1, MAP2K2, MAPK1, MET, NF1, NRAS, NTRK1, NTRK2, NTRK3, PDGFRA, PTPN11, RAC1, RAF1, RASA1, RET, RIT1, ROS1 and SOS1); and no oncogenic mutations in the RAS pathway. […] Cells were incubated for 120 h, and cell viability was determined using the CellTiter-Glo Luminescent Cell Viability Assay (CTG) (Promega, G7572) according to the manufacturer’s instructions.

## CCn1c(-c2cc(N3CCN(C4CC4)CC3)cnc2[C@H](C)OC)c2c3cc(ccc31)-c1csc(n1)C[C@H](NC(=O)[C@H]1[C@@H]3COC[C@@H]31)C(=O)N1CCC[C@H](N1)C(=O)OCC(C)(C)C2 [RMC-7977]
JHH-2, read-out: RMC-7977 EC50 (M), JHH2, ROS1 fusion, Liver
  EC50: 5.37e-09 M
KARPAS-299, read-out: RMC-7977 EC50 (M), KARPAS299, ALK fusion, Blood/lymphoma
  EC50: 9.47e-08 M
KATO III, read-out: RMC-7977 EC50 (M), KATOIII, RAS pathway WT, Stomach
  EC50: 1.48e-08 M
KHOS/NP, read-out: RMC-7977 EC50 (M), KHOSNP, KRAS A59T, Bone
  EC50: 1.02e-09 M
KM 12L4, read-out: RMC-7977 EC50 (M), KM12L4, NTRK1 fusion, Large intestine/Colorectum
  EC50: 5.14e-09 M
KRAS^G12X mutant cell lines, read-out: median EC50
  EC50: 2.4e-09 M
KYSE-150, read-out: RMC-7977 EC50 (M), KYSE150, ERBB3 mut, HN/Esophagus
  EC50: 5.92e-09 M
KYSE-270, KYSE270, RTKMUT/fusion, read-out: EC50
  EC50: 5.99e-09 M
KYSE-270, read-out: RMC-7977 EC50 (M), KYSE270, EGFR mut, HN/Esophagus
  EC50: 5.99e-09 M
KYSE-410, read-out: RMC-7977 EC50 (M), KYSE410, KRAS G12C, HN/Esophagus
  EC50: 4.07e-09 M
LC-2-ad, read-out: RMC-7977 EC50 (M), LC2AD, RET fusion, Lung
  EC50: 5.15e-09 M
LCLC-97TM1, read-out: RMC-7977 EC50 (M), LCLC97TM1, KRAS G12V, Lung
  EC50: 3.47e-10 M
LCLC-103H, read-out: RMC-7977 EC50 (M), LCLC103H, NF1 LOF, Lung
  EC50: 3.67e-07 M
LN-229, read-out: RMC-7977 EC50 (M), LN229, PTPN11 mut, Brain&Nerves
  EC50: 6.69e-09 M
LS174T, read-out: RMC-7977 EC50 (M), LS174T, KRAS G12D, Large intestine/Colorectum
  EC50: 2.24e-08 M
LS180, read-out: RMC-7977 EC50 (M), LS180, KRAS G12D, Large intestine/Colorectum
  EC50: 1.62e-08 M
LS-123, read-out: RMC-7977 EC50 (M), LS123, KRAS G12S, Large intestine/Colorectum
  EC50: 1.29e-09 M
LS-513, read-out: RMC-7977 EC50 (M), LS513, KRAS G12D, Large intestine/Colorectum
  EC50: 1.2e-09 M
LS-1034, read-out: RMC-7977 EC50 (M), LS1034, KRAS A146T, Large intestine/Colorectum
  EC50: 2.51e-08 M
LoVo, read-out: RMC-7977 EC50 (M), LOVO, KRAS G13D, Large intestine/Colorectum
  EC50: 5.62e-08 M
MCF7, read-out: RMC-7977 EC50 (M), MCF7, RAS pathway WT, Breast
  EC50: > 1e-06 M
MES-SA, read-out: RMC-7977 EC50 (M), MESSA, RAS pathway WT, Uterus
  EC50: > 1e-06 M
MFE-296, read-out: RMC-7977 EC50 (M), MFE296, RAS pathway WT, Uterus
  EC50: > 1e-06 M
MIA PaCa-2, read-out: RMC-7977 EC50 (M), MIAPACA2, KRAS G12C, Lung
  EC50: 4.27e-09 M
MKN-1, read-out: RMC-7977 EC50 (M), MKN1, RAS pathway WT, Stomach
  EC50: 4.87e-08 M
MKN-45, read-out: RMC-7977 EC50 (M), MKN45, MET amp, Stomach
  EC50: 8.64e-09 M
MeWo, read-out: RMC-7977 EC50 (M), MEWO, NF1 LOF, Skin
  EC50: 4.86e-09 M
NCI-H23, read-out: RMC-7977 EC50 (M), NCIH23, KRAS G12C, Lung
  EC50: 8.51e-10 M
NCI-H358, read-out: RMC-7977 EC50 (M), NCIH358, KRAS G12C, Lung
  EC50: 6.31e-10 M
NCI-H441, read-out: RMC-7977 EC50 (M), NCIH441, KRAS G12V, Lung
  EC50: 3.89e-10 M
NCI-H460, read-out: RMC-7977 EC50 (M), NCIH460, KRAS Q61H, Lung
  EC50: 6.17e-09 M
NCI-H508, read-out: RMC-7977 EC50 (M), NCIH508, BRAF mut other, Large intestine/Colorectum
  EC50: 1.21e-07 M
NCI-H520, read-out: RMC-7977 EC50 (M), NCIH520, RAS pathway WT, Lung
  EC50: 2.85e-08 M
NCI-H716, read-out: RMC-7977 EC50 (M), NCIH716, KRAS R97I, Large intestine/Colorectum
  EC50: 2.75e-09 M
NCI-H727, read-out: RMC-7977 EC50 (M), NCIH727, KRAS G12V, Lung
  EC50: 7.24e-10 M
NCI-H747, read-out: RMC-7977 EC50 (M), NCIH747, KRAS G13D, Large intestine/Colorectum
  EC50: 1.82e-09 M
NCI-H1155, read-out: RMC-7977 EC50 (M), NCIH1155, KRAS Q61H, Lung
  EC50: > 1e-06 M
NCI-H1299, read-out: RMC-7977 EC50 (M), NCIH1299, NRAS Q61K, Lung
  EC50: 1.78e-09 M
NCI-H1373, read-out: RMC-7977 EC50 (M), NCIH1373, KRAS G12C, Lung
  EC50: 1.78e-09 M
NCI-H1395, read-out: RMC-7977 EC50 (M), NCIH1395, BRAF mut other, Lung
  EC50: > 1e-06 M
NCI-H1581, read-out: RMC-7977 EC50 (M), NCIH1581, RAS pathway WT, Lung
  EC50: 5.55e-08 M
NCI-H1650, read-out: RMC-7977 EC50 (M), NCIH1650, EGFR mut, Lung
  EC50: 4.04e-08 M
NCI-H1666, read-out: RMC-7977 EC50 (M), NCIH1666, BRAF mut other, Lung
  EC50: 8.2e-09 M
NCI-H1792, read-out: RMC-7977 EC50 (M), NCIH1792, KRAS G12C, Lung
  EC50: 1.91e-09 M
NCI-H1838, read-out: RMC-7977 EC50 (M), NCIH1838, NF1 LOF, Lung
  EC50: 8.76e-09 M
NCI-H1915, read-out: RMC-7977 EC50 (M), NCIH1915, HRAS Q61L, Lung
  EC50: 1.62e-08 M
NCI-H1944, read-out: RMC-7977 EC50 (M), NCIH1944, KRAS G13D, Lung
  EC50: 3.16e-08 M
NCI-H1975, read-out: RMC-7977 EC50 (M), NCIH1975, EGFR mut, Lung
  EC50: 4.07e-09 M
NCI-H1993, read-out: RMC-7977 EC50 (M), NCIH1993, MET amp, Lung
  EC50: 4.57e-09 M
NCI-H2009, read-out: RMC-7977 EC50 (M), NCIH2009, KRAS G12A, Lung
  EC50: 5.75e-09 M
NCI-H2087, read-out: RMC-7977 EC50 (M), NCIH2087, NRAS Q61K, Lung
  EC50: 5.89e-10 M
NCI-H2110, read-out: RMC-7977 EC50 (M), NCIH2110, PTPN11 mut, Lung
  EC50: 7.95e-09 M
NCI-H2122, read-out: RMC-7977 EC50 (M), NCIH2122, KRAS G12C, Lung
  EC50: 9.33e-10 M
NCI-H2172, read-out: RMC-7977 EC50 (M), NCIH2172, RAS pathway WT, Lung
  EC50: 4.73e-07 M
NCI-H2228, read-out: RMC-7977 EC50 (M), NCIH2228, ALK fusion, Lung
  EC50: 1.41e-08 M
NCI-H3122, read-out: RMC-7977 EC50 (M), NCIH3122, ALK fusion, Lung
  EC50: 4.62e-09 M
NCI-H3255, read-out: RMC-7977 EC50 (M), NCIH3255, EGFR mut, Lung
  EC50: 6.28e-09 M
NF1^LOF cell lines, read-out: median EC50
  EC50: 3.25e-08 M
NRAS and HRAS mutant cell lines, read-out: median EC50
  EC50: 6.76e-09 M
NUGC-4, read-out: RMC-7977 EC50 (M), NUGC4, NF1 LOF, Stomach
  EC50: 3.16e-09 M
